Reference: ChEMBL document CHEMBL3351775, “Design, synthesis and anti-HIV evaluation of novel diarylnicotinamide derivatives (DANAs) targeting the entrance channel of the NNRTI binding pocket through structure-guided molecular hybridization” (Eur J Med Chem, 2014)
Counter-ions that a name gives are not always drawn.

Experiments:
[1] = test system: Human immunodeficiency virus 1; experiment: Antiviral activity against HIV1 3B infected in human MT4 cells assessed as inhibition of virus-induced […] after 5 days by MTT assay; type: functional, organism-based; settings: Human immunodeficiency virus 1, 3B, MT4, 120 h
[2] = test system: Human immunodeficiency virus 2; experiment: Antiviral activity against HIV2 ROD infected in human MT4 cells assessed as inhibition of virus-induced […] after 5 days by MTT assay; type: functional, organism-based; settings: Human immunodeficiency virus 2, ISOLATE ROD, MT4, 120 h
[3] = test system: Human immunodeficiency virus 1; experiment: Antiviral activity against HIV1 RES056 expressing reverse transcriptase K103N + Y181C mutant infected in human MT4 cells assessed as inhibition of virus-induced […] after 5 days by MTT assay; type: functional, organism-based; settings: Human immunodeficiency virus 1, RES056, MT4, 120 h
[4] = Cytotoxicity against mock-infected human MT4 cells after 5 days by MTT assay; type: cell-based
[5] = target: Human immunodeficiency virus type 1 reverse transcriptase (Human immunodeficiency virus 1, UniProt Q72547); experiment: Inhibition of HIV1 reverse transcriptase assessed as reduction in biotin-dUTP incorporation using poly(rA)-oligo(dT) as template/primer and digoxigenin-/biotin-labeled dUTP nucleotides incubated for 1 hr
[6] = in vitro; settings: human, MT4 cells, mock-infected (CC50) and HIV1 3B infected (EC50)
Description: Selectivity index, ratio of CC50 for mock-infected human MT4 cells to EC50 for HIV1 3B infected in human MT4 cells

| Compound | EC50 [1] [µM] | EC50 [2] [µM] | EC50 [3] [µM] | CC50 at 120 h [4] [µM] | IC50 [5] [µM] | selectivity ratio [6] |
| --- | --- | --- | --- | --- | --- | --- |
| Cc1cc(C#N)cc(C)c1Oc1cc(Nc2ccc(C#N)cc2)ncc1C(=O)NCCN(C)C | > 8.8 | > 7.5 | > 23.2 | 23.2 | 25.8 | ≤ 3 |
| CCCNC(=O)c1cnc(Nc2ccc(C#N)cc2)cc1Oc1c(C)cc(C#N)cc1C | 0.54 | > 170 | > 170 | 170 | 4.14 | 321 |
| COCCNC(=O)c1cnc(Nc2ccc(C#N)cc2)cc1Oc1c(C)cc(C#N)cc1C | 1.74 | > 61 | > 61 | 61 | 11.3 | 35 |
| Cc1cc(C#N)cc(C)c1Oc1cc(Nc2ccc(C#N)cc2)ncc1C(=O)NCC1CC1 | 0.85 | > 146 | > 146 | > 146 | 4.25 | ≥ 175 |
| C#CCNC(=O)c1cnc(Nc2ccc(C#N)cc2)cc1Oc1c(C)cc(C#N)cc1C | 0.24 | > 167 | > 167 | 167 | 1.29 | 703 |
| COC(CNC(=O)c1cnc(Nc2ccc(C#N)cc2)cc1Oc1c(C)cc(C#N)cc1C)OC | 4.54 | > 90.6 | > 90.6 | 90.6 | 11.4 | 20 |
| Cc1cc(C#N)cc(C)c1Oc1cc(Nc2ccc(C#N)cc2)ncc1C(=O)NC1CC1 | 0.31 | > 231 | > 231 | 231 | 3.37 | 784 |
| Cc1cc(C#N)cc(C)c1Oc1cc(Nc2ccc(C#N)cc2)ncc1C(=O)NCC1CCCO1 (stereo unspecified) | 3.1 | > 142 | > 142 | 143 | 10.9 | 46 |
| C=CCNC(=O)c1cnc(Nc2ccc(C#N)cc2)cc1Oc1c(C)cc(C#N)cc1C | 0.24 | > 207 | > 207 | 207 | 2.85 | 625 |
| Cc1cc(C#N)cc(C)c1Oc1cc(Nc2ccc(C#N)cc2)ncc1C(=O)NCCC#N | 0.69 | > 65.8 | > 65.8 | 65.8 | 3.94 | 97 |
| Cc1cc(C#N)cc(C)c1Oc1cc(Nc2ccc(C#N)cc2)ncc1C(N)=O | 0.05 | > 326 | > 326 | > 326 | 0.08 | > 6200 |
| Cc1cc(C)c(Oc2cc(Nc3ccc(C#N)cc3)ncc2C(=O)NCCN(C)C)c(C)c1 | 0.63 | > 16.7 | > 16.7 | 4.67 | 3.45 | 7 |
| CCCNC(=O)c1cnc(Nc2ccc(C#N)cc2)cc1Oc1c(C)cc(C)cc1C | 0.055 | > 11.1 | > 11.2 | 18.9 | 0.32 | 335 |
| COCCNC(=O)c1cnc(Nc2ccc(C#N)cc2)cc1Oc1c(C)cc(C)cc1C | 0.067 | > 24 | 7.8 | 24 | 0.52 | 359 |
| Cc1cc(C)c(Oc2cc(Nc3ccc(C#N)cc3)ncc2C(=O)NCC2CC2)c(C)c1 | 0.11 | > 30.6 | > 30.6 | 30.6 | 0.68 | 264 |
| C#CCNC(=O)c1cnc(Nc2ccc(C#N)cc2)cc1Oc1c(C)cc(C)cc1C | 0.029 | > 73 | 6.1 | 73 | 0.07 | 2470 |
| COC(CNC(=O)c1cnc(Nc2ccc(C#N)cc2)cc1Oc1c(C)cc(C)cc1C)OC | 0.28 | > 23.2 | > 23.2 | 23.2 | 1.89 | 83 |
| Cc1cc(C)c(Oc2cc(Nc3ccc(C#N)cc3)ncc2C(=O)NC2CC2)c(C)c1 | 0.24 | > 25.7 | > 25.8 | 25.8 | 0.23 | 103 |
| Cc1cc(C)c(Oc2cc(Nc3ccc(C#N)cc3)ncc2C(=O)NCC2CCCO2)c(C)c1 (stereo unspecified) | 0.18 | > 274 | > 274 | > 274 | 1.2 | > 1490 |
| C=CCNC(=O)c1cnc(Nc2ccc(C#N)cc2)cc1Oc1c(C)cc(C)cc1C | 0.058 | > 21.5 | 10.1 | 21.3 | 0.17 | 364 |
| Cc1cc(C)c(Oc2cc(Nc3ccc(C#N)cc3)ncc2C(=O)NCCC#N)c(C)c1 | 0.033 | > 9.9 | > 9.89 | 9.89 | 0.19 | 310 |
| Cc1cc(C)c(Oc2cc(Nc3ccc(C#N)cc3)ncc2C(N)=O)c(C)c1 | 0.027 | > 336 | > 336 | > 336 | 0.02 | > 12500 |
| CC(C)Nc1cccnc1N1CCN(C(=O)c2cc3cc(NS(C)(=O)=O)ccc3[nH]2)CC1 [DELAVIRDINE MESYLATE] | 0.66 |  | > 43.8 | > 43.8 |  | > 67 |
| O=c1[nH]cnc2c1ncn2[C@H]1CC[C@@H](CO)O1 [DIDANOSINE] | 23.2 | 44.9 |  | > 212 |  | > 9 |
| O=C1Nc2ccc(Cl)cc2[C@@](C#CC2CC2)(C(F)(F)F)O1 [EFAVIRENZ] | 0.0063 |  |  | > 6.34 |  |  |
| Cc1cc(C#N)cc(C)c1Oc1nc(Nc2ccc(C#N)cc2)nc(N)c1Br [ETRAVIRINE] | 0.0041 |  | 0.025 | > 4.59 |  | > 1130 |
| Nc1ccn([C@@H]2CS[C@H](CO)O2)c(=O)n1 [LAMIVUDINE] | 2.22 | 8.81 |  | > 87.2 |  | > 39 |
| Cc1ccnc2c1NC(=O)c1cccnc1N2C1CC1 [NEVIRAPINE] | 0.31 |  | > 7.58 | > 15 |  |  |
| Cc1cn([C@H]2C[C@H](N=[N+]=[N-])[C@@H](CO)O2)c(=O)[nH]c1=O [ZIDOVUDINE] |  | 0.0067 | 0.01 | > 93.5 |  |  |
